Marks after values point to notes of the source that are not given here.
Tests used:
Assay type in all cases: in vivo
[1] = test system: Kunming mice; assay: Influence on autonomic activity of normal mice (ZIL-2 mice autonomic activity meter, counts within 10 min); settings: intragastric, x ± s, n = 10; for Times of activities in 1 h after drug administration/10 min: 1 h after administration; for Times of activities in 2 h after drug administration/10 min: 2 h after administration; for Times of activities in 24 h after drug administration/10 min: 24 h after administration
How it was run: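 Activity counts during a 10-min window were taken at 1, 2 and 24 h after dosing in groups of 10 mixed-sex Kunming mice. Compounds were given in 0.5% CMC-Na at 25, 50 or 100 mg/kg. Statistics used Levene's homogeneity test, ANOVA and Dunnett's multiple comparisons.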

[2] = test system: Kunming mice; assay: Influence on hypnosis effect with pentobarbital sodium doses below the threshold (25 mg/kg i.p.); settings: pentobarbital sodium 25 mg/kg i.p. 60 min later, sleep observed in 30 min, n = 10
How it was run: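 Percentage of mice sleeping within 30 min after subthreshold pentobarbital sodium (25 mg/kg i.p.), defined by loss of righting reflex over 1 min, analysed by χ2. Compound in 0.5% CMC-Na given intragastrically at 25/50/100 mg/kg 60 min before; groups of 10 Kunming mice, both sexes.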

[3] = test system: Kunming mice; assay: Influence on hypnosis effect with pentobarbital sodium doses at the threshold (50 mg/kg i.p.); settings: pentobarbital sodium 50 mg/kg i.p. 60 min later, x ± s, n = 10
How it was run: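 Pentobarbital sodium (0.3%, 50 mg/kg i.p.) injected 60 min after a single intragastric dose (25, 50, 100 mg/kg, 0.5% CMC-Na vehicle) in Kunming mice, 10 per group, sexes balanced. Onset and length of sleep (righting reflex lost over 1 min) analysed by ANOVA; sleeping incidence by χ2 test.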

[4] = test drug 25 mg/kg intragastric single dose
[5] = test drug 50 mg/kg intragastric single dose
[6] = test drug 100 mg/kg intragastric single dose
[7] = 25 mg/kg intragastric single dose
[8] = 50 mg/kg intragastric single dose
[9] = 100 mg/kg intragastric single dose

| SMILES | Times of activities in 1 h after drug administration/10 min ([1]; 25 mg/kg) | Times of activities in 2 h after drug administration/10 min ([1]; 25 mg/kg) | Times of activities in 24 h after drug administration/10 min ([1]; 25 mg/kg) | Times of activities in 1 h after drug administration/10 min ([1]; 50 mg/kg) | Times of activities in 2 h after drug administration/10 min ([1]; 50 mg/kg) | Times of activities in 24 h after drug administration/10 min ([1]; 50 mg/kg) | Times of activities in 1 h after drug administration/10 min ([1]; 100 mg/kg) | Times of activities in 2 h after drug administration/10 min ([1]; 100 mg/kg) | Times of activities in 24 h after drug administration/10 min ([1]; 100 mg/kg) | Number of sleeping animals [2, 4] | rate of sleeping (%) [2, 4] | Number of sleeping animals [2, 5] | rate of sleeping (%) [2, 5] | Number of sleeping animals [2, 6] | rate of sleeping (%) [2, 6] | duration of sleep [3, 7] | time to sleep [3, 7] | duration of sleep [3, 8] | time to sleep [3, 8] | duration of sleep [3, 9] | further results |
| --- | --- | --- | --- | --- | --- | --- | --- | --- | --- | --- | --- | --- | --- | --- | --- | --- | --- | --- | --- | --- | --- |
| O=c1cc(-c2cc(O)c(Oc3ccccc3)c(CCCCCCCCCCCCCCCCCCCCCl)c2)oc2cc(C#Cc3ccccc3)cc([N+](=O)[O-])c12 [Example 16] | 319.2 ± 55.4 /10 min | 290.6 ± 41.2 /10 min | 313.5 ± 68.2 /10 min | 295.5 ± 41.3 /10 min | 250.4 ± 41.4 /10 min | 314.1 ± 82.3 /10 min | 273.4 ± 48.3 /10 min | 224.7 ± 46.3 /10 min | 324.7 ± 79.7 /10 min | 2 | 20% | 4 | 40* % | 6 | 60** % | 25.69 ± 27.26 min | 5.48 ± 2.25 min | 48.11 ± 25.41 min | 4.21 ± 1.53 min | 55.62 ± 19.72 min | time to sleep [3, 9]: 3.86 ± 1.45 min |
| C=Cc1cc(-c2cc(=O)c3c(C4CCSC4)cc(C(N)=O)cc3o2)cc(N)c1CC (stereo not drawn) [Example 17] | 284.9 ± 49.3 /10 min | 280.1 ± 42.7 /10 min | 306.2 ± 81.3 /10 min | 176.6 ± 50.2 /10 min | 189.3 ± 57.3 /10 min | 291.5 ± 70.0 /10 min | 153.1 ± 38.4 /10 min | 135.9 ± 48.7 /10 min | 302.1 ± 89.0 /10 min | 3 | 30% | 6 | 60** % | 7 | 70** % | 32.56 ± 25.95 min | 5.55 ± 1.45 min | 45.62 ± 21.08 min | 3.97 ± 1.26 min | 57.86 ± 25.22 min | time to sleep [3, 9]: 3.96 ± 1.14 min |
| CCCCCc1cc(-c2cc(=O)c3c(CC)cc(CCCCCCl)cc3o2)cc(O)c1Cc1ccccc1 [Example 19] | 282.2 ± 46.5 /10 min | 265.0 ± 45.3 /10 min | 302.8 ± 83.2 /10 min | 234.7 ± 40.1 /10 min | 243.5 ± 48.3 /10 min | 306.2 ± 81.3 /10 min | 229.6 ± 34.8 /10 min | 172.5 ± 39.2 /10 min | 287.8 ± 89.1 /10 min | 3 | 30% | 6 | 60** % | 7 | 70** % | 30.63 ± 20.25 min | 4.95 ± 2.00 min | 37.67 ± 13.45 min | 4.57 ± 1.65 min | 52.65 ± 20.15 min | time to sleep [3, 9]: 3.94 ± 1.23 min |

Reference: US9669003B2, “Use of flavone and flavanone derivatives in preparation of sedative and hypnotic drugs” (priority 2012, dated 2017)
